Square brackets hold non-standard residues; d marks the D form. Peptide text beside a SMILES is read from it. * marks the point of attachment. dHis(τ-Bn) = N[C@H](Cc1cn(Cc2ccccc2)cn1)C(=O)O; d2Nal = N[C@H](Cc1ccc2ccccc2c1)C(=O)O; pGlu = O=C1CC[C@@H](C(=O)O)N1; tBu = CC(C)(C)*
Tests used:
[1] = Solubility analysis in PBS (Analysis Method B); format: physicochemical; conditions: pH 7.4
Protocol: The solubility of compounds of the invention was tested as described in the general methods. Solubility was then graded according to a rating between 1 to 5, where 1 is most soluble and 5 is least soluble.

[2] = target: T1, GnRHR (Homo sapiens, UniProt P30968); conditions: 1000.0
T1 sequence (P30968 1-328): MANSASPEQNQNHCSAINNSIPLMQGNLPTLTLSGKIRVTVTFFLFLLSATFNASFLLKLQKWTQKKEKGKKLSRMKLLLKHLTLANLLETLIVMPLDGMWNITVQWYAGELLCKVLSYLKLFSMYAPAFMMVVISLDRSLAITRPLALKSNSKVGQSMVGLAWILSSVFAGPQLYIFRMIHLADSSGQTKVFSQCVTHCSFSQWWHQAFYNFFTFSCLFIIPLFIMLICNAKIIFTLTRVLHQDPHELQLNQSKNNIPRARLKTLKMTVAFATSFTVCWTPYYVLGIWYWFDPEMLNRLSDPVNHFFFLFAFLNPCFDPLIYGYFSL

SMILES: NC(=O)CNC(=O)[C@@H]1CCCN1C(=O)[C@H](Cc1ccc(O)cc1)NC(=O)[C@H](Cc1c[nH]c2ccccc12)NC(=O)[C@@H](Cc1ccc2ccccc2c1)NC(=O)[C@H](Cc1ccc(O)cc1)NC(=O)[C@H](CO)NC(=O)[C@H](Cc1c[nH]c2ccccc12)NC(=O)[C@H](Cc1c[nH]cn1)NC(=O)[C@@H]1CCC(=O)N1 [Compound 30, pGlu-His-Trp-Ser-Tyr-D-Nal-Trp-Tyr-Pro-Gly-amide] ([pGlu]HWSY[d2Nal]WYPG-NH2)
- Solubility grading [1]: 1
- GNRHR Stimulation at 1 μM [2]: 12 percentage

SMILES: CCNC(=O)[C@@H]1CCCN1C(=O)[C@H](Cc1ccc(O)cc1)NC(=O)[C@H](Cc1c[nH]c2ccccc12)NC(=O)[C@@H](CC(C)C)NC(=O)[C@H](Cc1ccc(O)cc1)NC(=O)[C@H](CO)NC(=O)[C@H](Cc1c[nH]c2ccccc12)NC(=O)[C@H](Cc1c[nH]cn1)NC(=O)[C@@H]1CCC(=O)N1 [Compound 49, pGlu-His-Trp-Ser-Tyr-D-Leu-Trp-Tyr-Pro-NHEt] ([pGlu]HWSY[dL]WYP-NHEt)
- Solubility grading [1]: 4
- GNRHR Stimulation at 1 μM [2]: 77 percentage

SMILES: CCNC(=O)[C@@H]1CCCN1C(=O)[C@H](Cc1ccc(O)cc1)NC(=O)[C@H](Cc1c[nH]c2ccccc12)NC(=O)[C@@H](COC(C)(C)C)NC(=O)[C@H](Cc1c[nH]cn1)NC(=O)[C@H](CO)NC(=O)[C@H](Cc1c[nH]c2ccccc12)NC(=O)[C@H](Cc1c[nH]cn1)NC(=O)[C@@H]1CCC(=O)N1 [Compound 13, pGlu-His-Trp-Ser-His-D-Ser(tBu)-Trp-Tyr-Pro-NHEt] ([pGlu]HWSH[dS](tBu)WYP-NHEt)
- Solubility grading [1]: 3
- GNRHR Stimulation at 1 μM [2]: 87 percentage

SMILES: NC(=O)CNC(=O)[C@@H]1CCCN1C(=O)[C@H](Cc1ccc(O)cc1)NC(=O)[C@H](Cc1c[nH]c2ccccc12)NC(=O)[C@@H](Cc1c[nH]c2ccccc12)NC(=O)[C@H](Cc1c[nH]cn1)NC(=O)[C@H](CO)NC(=O)[C@H](Cc1c[nH]c2ccccc12)NC(=O)[C@H](Cc1c[nH]cn1)NC(=O)[C@@H]1CCC(=O)N1 [Compound 65, pGlu-His-Trp-Ser-His-D-Trp-Trp-Tyr-Pro-Gly-amide] ([pGlu]HWSH[dW]WYPG-NH2)
- Solubility grading [1]: 4
- GNRHR Stimulation at 1 μM [2]: 72 percentage

SMILES: CCNC(=O)[C@@H]1CCCN1C(=O)[C@H](Cc1ccc(O)cc1)NC(=O)[C@H](CC(C)C)NC(=O)[C@@H](CC(C)C)NC(=O)[C@H](Cc1ccc(O)cc1)NC(=O)[C@H](CO)NC(=O)[C@H](Cc1c[nH]c2ccccc12)NC(=O)[C@H](Cc1c[nH]cn1)NC(=O)[C@@H]1CCC(=O)N1 [Compound 45, pGlu-His-Trp-Ser-Tyr-D-Leu-Leu-Tyr-Pro-NHEt] ([pGlu]HWSY[dL]LYP-NHEt)
- Solubility grading [1]: 2
- GNRHR Stimulation at 1 μM [2]: 105 percentage

SMILES: CCNC(=O)[C@@H]1CCCN1C(=O)[C@H](CCCNC(=N)N)NC(=O)[C@H](Cc1c[nH]c2ccccc12)NC(=O)[C@@H](COC(C)(C)C)NC(=O)[C@H](Cc1ccc(O)cc1)NC(=O)[C@H](CO)NC(=O)[C@H](Cc1c[nH]c2ccccc12)NC(=O)[C@H](Cc1c[nH]cn1)NC(=O)[C@@H]1CCC(=O)N1 [Compound 8, pGlu-His-Trp-Ser-Tyr-D-Ser(tBu)-Trp-Arg-Pro-NHEt] ([pGlu]HWSY[dS](tBu)WRP-NHEt)
- Solubility grading [1]: 2
- GNRHR Stimulation at 1 μM [2]: 86 percentage

SMILES: CCNC(=O)[C@@H]1CCCN1C(=O)[C@H](Cc1ccc(O)cc1)NC(=O)[C@H](Cc1c[nH]c2ccccc12)NC(=O)[C@@H](CC(C)C)NC(=O)[C@H](Cc1c[nH]cn1)NC(=O)[C@H](CO)NC(=O)[C@H](Cc1c[nH]c2ccccc12)NC(=O)[C@H](Cc1c[nH]cn1)NC(=O)[C@@H]1CCC(=O)N1 [Compound 50, pGlu-His-Trp-Ser-His-D-Leu-Trp-Tyr-Pro-NHEt] ([pGlu]HWSH[dL]WYP-NHEt)
- Solubility grading [1]: 1
- GNRHR Stimulation at 1 μM [2]: 105 percentage

SMILES: CCNC(=O)[C@@H]1CCCN1C(=O)[C@H](Cc1ccc(O)cc1)NC(=O)[C@H](CC(C)C)NC(=O)[C@@H](COC(C)(C)C)NC(=O)[C@H](Cc1c[nH]cn1)NC(=O)[C@H](CO)NC(=O)[C@H](Cc1c[nH]c2ccccc12)NC(=O)[C@H](Cc1c[nH]cn1)NC(=O)[C@@H]1CCC(=O)N1 [Compound 11, pGlu-His-Trp-Ser-His-D-Ser(tBu)-Leu-Tyr-Pro-NHEt] ([pGlu]HWSH[dS](tBu)LYP-NHEt)
- Solubility grading [1]: 1
- GNRHR Stimulation at 1 μM [2]: 76 percentage

SMILES: CCNC(=O)[C@@H]1CCCN1C(=O)[C@H](Cc1ccc(O)cc1)NC(=O)[C@H](CC(C)C)NC(=O)[C@@H](Cc1cn(Cc2ccccc2)cn1)NC(=O)[C@H](Cc1c[nH]cn1)NC(=O)[C@H](CO)NC(=O)[C@H](Cc1c[nH]c2ccccc12)NC(=O)[C@H](Cc1c[nH]cn1)NC(=O)[C@@H]1CCC(=O)N1 [Compound 61, pGlu-His-Trp-Ser-His-D-Bhi-Leu-Tyr-Pro-NHEt] ([pGlu]HWSH[dHis(τ-Bn)]LYP-NHEt)
- Solubility grading [1]: 3
- GNRHR Stimulation at 1 μM [2]: 112 percentage

SMILES: CCNC(=O)[C@@H]1CCCN1C(=O)[C@H](Cc1ccc(O)cc1)NC(=O)[C@H](CC(C)C)NC(=O)[C@@H](Cc1cn(Cc2ccccc2)cn1)NC(=O)[C@H](Cc1ccc(O)cc1)NC(=O)[C@H](CO)NC(=O)[C@H](Cc1c[nH]c2ccccc12)NC(=O)[C@H](Cc1c[nH]cn1)NC(=O)[C@@H]1CCC(=O)N1 [Compound 59, pGlu-His-Trp-Ser-Tyr-D-Bhi-Leu-Tyr-Pro-NHEt] ([pGlu]HWSY[dHis(τ-Bn)]LYP-NHEt)
- Solubility grading [1]: 4
- GNRHR Stimulation at 1 μM [2]: 85 percentage

SMILES: CCNC(=O)[C@@H]1CCCN1C(=O)[C@H](CCCNC(=N)N)NC(=O)[C@H](Cc1c[nH]c2ccccc12)NC(=O)[C@@H](CC(C)C)NC(=O)[C@H](Cc1ccc(O)cc1)NC(=O)[C@H](CO)NC(=O)[C@H](Cc1c[nH]c2ccccc12)NC(=O)[C@H](Cc1c[nH]cn1)NC(=O)[C@@H]1CCC(=O)N1 [Compound 44, pGlu-His-Trp-Ser-Tyr-D-Leu-Trp-Arg-Pro-NHEt] ([pGlu]HWSY[dL]WRP-NHEt)
- Solubility grading [1]: 2
- GNRHR Stimulation at 1 μM [2]: 111 percentage

SMILES: N=C(N)NCCC[C@H](NC(=O)[C@H](Cc1c[nH]c2ccccc12)NC(=O)[C@@H](Cc1ccc2ccccc2c1)NC(=O)[C@H](Cc1ccc(O)cc1)NC(=O)[C@H](CO)NC(=O)[C@H](Cc1c[nH]c2ccccc12)NC(=O)[C@H](Cc1c[nH]cn1)NC(=O)[C@@H]1CCC(=O)N1)C(=O)N1CCC[C@H]1C(=O)NCC(N)=O [Compound 24, pGlu-His-Trp-Ser-Tyr-D-Nal-Trp-Arg-Pro-Gly-amide] ([pGlu]HWSY[d2Nal]WRPG-NH2)
- Solubility grading [1]: 5
- GNRHR Stimulation at 1 μM [2]: 87 percentage

SMILES: CCNC(=O)[C@@H]1CCCN1C(=O)[C@H](Cc1ccc(O)cc1)NC(=O)[C@H](Cc1c[nH]c2ccccc12)NC(=O)[C@@H](Cc1cn(Cc2ccccc2)cn1)NC(=O)[C@H](Cc1c[nH]cn1)NC(=O)[C@H](CO)NC(=O)[C@H](Cc1c[nH]c2ccccc12)NC(=O)[C@H](Cc1c[nH]cn1)NC(=O)[C@@H]1CCC(=O)N1 [Compound 63, pGlu-His-Trp-Ser-His-D-Bhi-Trp-Tyr-Pro-NHEt] ([pGlu]HWSH[dHis(τ-Bn)]WYP-NHEt)
- Solubility grading [1]: 5
- GNRHR Stimulation at 1 μM [2]: 77 percentage

SMILES: CC(C)C[C@H](NC(=O)[C@@H](Cc1ccc2ccccc2c1)NC(=O)[C@H](Cc1ccc(O)cc1)NC(=O)[C@H](CO)NC(=O)[C@H](Cc1c[nH]c2ccccc12)NC(=O)[C@H](Cc1c[nH]cn1)NC(=O)[C@@H]1CCC(=O)N1)C(=O)N[C@@H](Cc1ccc(O)cc1)C(=O)N1CCC[C@H]1C(=O)NCC(N)=O [Compound 25, pGlu-His-Trp-Ser-Tyr-D-Nal-Leu-Tyr-Pro-Gly-amide] ([pGlu]HWSY[d2Nal]LYPG-NH2)
- Solubility grading [1]: 4
- GNRHR Stimulation at 1 μM [2]: 82 percentage

SMILES: CCNC(=O)[C@@H]1CCCN1C(=O)[C@H](Cc1ccc(O)cc1)NC(=O)[C@H](Cc1c[nH]c2ccccc12)NC(=O)[C@@H](Cc1cn(Cc2ccccc2)cn1)NC(=O)[C@H](Cc1ccc(O)cc1)NC(=O)[C@H](CO)NC(=O)[C@H](Cc1c[nH]c2ccccc12)NC(=O)[C@H](Cc1c[nH]cn1)NC(=O)[C@@H]1CCC(=O)N1 [Compound 62, pGlu-His-Trp-Ser-Tyr-D-Bhi-Trp-Tyr-Pro-NHEt] ([pGlu]HWSY[dHis(τ-Bn)]WYP-NHEt)
- Solubility grading [1]: 5
- GNRHR Stimulation at 1 μM [2]: 77 percentage

SMILES: CCNC(=O)[C@@H]1CCCN1C(=O)[C@H](CCCNC(=N)N)NC(=O)[C@H](CC(C)C)NC(=O)[C@@H](Cc1cn(Cc2ccccc2)cn1)NC(=O)[C@H](Cc1c[nH]cn1)NC(=O)[C@H](CO)NC(=O)[C@H](Cc1c[nH]c2ccccc12)NC(=O)[C@H](Cc1c[nH]cn1)NC(=O)[C@@H]1CCC(=O)N1 [Compound 56, pGlu-His-Trp-Ser-His-D-Bhi-Leu-Arg-Pro-NHEt] ([pGlu]HWSH[dHis(τ-Bn)]LRP-NHEt)
- Solubility grading [1]: 1
- GNRHR Stimulation at 1 μM [2]: 96 percentage

SMILES: NC(=O)CNC(=O)[C@@H]1CCCN1C(=O)[C@H](Cc1ccc(O)cc1)NC(=O)[C@H](Cc1c[nH]c2ccccc12)NC(=O)[C@@H](Cc1c[nH]c2ccccc12)NC(=O)[C@H](Cc1ccc(O)cc1)NC(=O)[C@H](CO)NC(=O)[C@H](Cc1c[nH]c2ccccc12)NC(=O)[C@H](Cc1c[nH]cn1)NC(=O)[C@@H]1CCC(=O)N1 [Compound 64, pGlu-His-Trp-Ser-Tyr-D-Trp-Trp-Tyr-Pro-Gly-amide] ([pGlu]HWSY[dW]WYPG-NH2)
- Solubility grading [1]: 5
- GNRHR Stimulation at 1 μM [2]: 50 percentage

SMILES: CC(C)C[C@H](NC(=O)[C@@H](Cc1ccc2ccccc2c1)NC(=O)[C@H](Cc1c[nH]cn1)NC(=O)[C@H](CO)NC(=O)[C@H](Cc1c[nH]c2ccccc12)NC(=O)[C@H](Cc1c[nH]cn1)NC(=O)[C@@H]1CCC(=O)N1)C(=O)N[C@@H](CCCNC(=N)N)C(=O)N1CCC[C@H]1C(=O)NCC(N)=O [Compound 23, pGlu-His-Trp-Ser-His-D-Nal-Leu-Arg-Pro-Gly-amide] ([pGlu]HWSH[d2Nal]LRPG-NH2)
- Solubility grading [1]: 1
- GNRHR Stimulation at 1 μM [2]: 106 percentage

Source: patent publication US11564969B2, “Immunorhelin compounds for intracellular infections” (ISR IMMUNE SYSTEM REGULATION HOLDING AB (PUBL), priority 2017, dated 2023)
